Assay results published in the supplement of paper PMC7840683.
± gives the standard deviation of the averaged measurements.

System: HepaRG
Assay: LDH release cytotoxicity, % of total lysis control; higher = more cytotoxic
Settings: 48 h
How it was run: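 Duplicate wells of single-lot HepaRG cells, grown on collagen I-coated 96-well plates, received eight-point half-log series of test chemicals with 100 µM as the top concentration. Exposure lasted 48 h in serum-free induction medium with 0.5% DMSO, while total lysis wells received 0.1% Triton X. Resorufin fluorescence (CytoTox-ONE, Tecan Safire) was used to quantify LDH leaked into 50 µL of spent medium. Values for percent cytotoxicity were normalized to on-plate vehicle and total lysis controls and averaged across the duplicates.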

SMILES | LDH release cytotoxicity (0.031623 µM) [%] | LDH release cytotoxicity (0.1 µM) [%] | LDH release cytotoxicity (0.316228 µM) [%] | LDH release cytotoxicity (1 µM) [%] | LDH release cytotoxicity (3.16228 µM) [%] | LDH release cytotoxicity (10 µM) [%] | LDH release cytotoxicity (31.6228 µM) [%] | LDH release cytotoxicity (100 µM) [%] | LDH release cytotoxicity (0.03162 µM) [%] | LDH release cytotoxicity (0.3162278 µM) [%] | LDH release cytotoxicity (0.0327296 µM) [%] | LDH release cytotoxicity (0.1035 µM) [%] | LDH release cytotoxicity (0.327296 µM) [%] | LDH release cytotoxicity (1.035 µM) [%] | LDH release cytotoxicity (3.27296 µM) [%] | LDH release cytotoxicity (10.35 µM) [%] | LDH release cytotoxicity (32.729574 µM) [%] | LDH release cytotoxicity (103.5 µM) [%]
C=CC1(C)OC(=O)N(c2cc(Cl)cc(Cl)c2)C1=O (configuration not stated) [Vinclozolin] | -0.342 ± 2.7 | -2.45 ± 0.46 | -2.11 ± 1.4 | -1.77 ± 2.5 | -1.59 ± 1.1 | -1.87 ± 1.3 | -1.19 ± 0.41 | 0.481 ± 0.36 |  |  |  |  |  |  |  |  |  | 
CC12C=CC(=O)C=C1CCC1C2C(=O)CC2(C)C1CCC2(O)C(=O)CO (configuration not stated) [Prednisone] |  | -1.83 ± 0.41 |  | -1.54 ± 0.39 | -1.77 ± 0.042 | -1.84 ± 0.37 | -1.61 ± 0.33 | -0.167 ± 0.094 | -1.86 ± 0.28 | -2.31 ± 0.061 |  |  |  |  |  |  |  | 
Nc1nc(=O)c2nc(CNc3ccc(C(=O)NC(CCC(=O)O)C(=O)O)cc3)cnc2[nH]1 (configuration not stated) [Folic acid] |  | -1.11 ± 0.044 |  | -1.1 ± 0.086 | -0.966 ± 0.064 | -0.672 ± 0.085 | -0.33 ± 0.12 | 1.64 ± 0.3 | -0.0941 ± 0.85 | -1.22 ± 0.067 |  |  |  |  |  |  |  | 
Oc1ccc(C(c2ccc(O)cc2)(C(F)(F)F)C(F)(F)F)cc1 [Bisphenol AF] |  | -1.4 ± 0.37 |  | -1.45 ± 0.031 | -0.575 ± 0.055 | -1.57 ± 0.15 | -1.62 ± 0.47 | 83.2 ± 2.1 | -1.31 ± 0.014 | -1.16 ± 0.18 |  |  |  |  |  |  |  | 
COc1ccc(-c2ccccc2)cc1NNC(=O)OC(C)C [Bifenazate] |  | -1.35 ± 0.97 |  | -1.59 ± 0.54 | -1.11 ± 0.95 | -0.547 ± 1.4 | -0.468 ± 0.53 | 1.1 ± 1.1 | -1.53 ± 0.49 | -1.03 ± 0.83 |  |  |  |  |  |  |  | 
CC1(C(=O)Nc2ccc(O)c(Cl)c2Cl)CCCCC1 [Fenhexamid] | -0.566 ± 0.13 | -4.08 ± 0.5 | -4.43 ± 1.2 | -3.83 ± 0.64 | -3.52 ± 0.054 | -3.56 ± 0.41 | -3.14 ± 0.72 | -0.0455 ± 1.5 |  |  |  |  |  |  |  |  |  | 
O=C1c2ccccc2C(=O)N1SC(Cl)(Cl)Cl [Folpet] | 0.571 ± 0.94 | -2.6 ± 0.32 | -1.27 ± 0.63 | -1.65 ± 1.3 | -1.73 ± 0.14 | -1.49 ± 0.98 | -0.653 ± 0.48 | -0.43 ± 1.1 |  |  |  |  |  |  |  |  |  | 
CCCCCCCCCCCCc1ccccc1 [Dodecylbenzene] |  | -1.71 ± 0.15 |  | -2.59 ± 0.8 | -2.08 ± 0.19 | -0.672 ± 0.39 | -1.17 ± 0.31 | 1.25 ± 1.2 | -2.1 ± 0.14 | -1.86 ± 0.75 |  |  |  |  |  |  |  | 
ClC1=C(Cl)C2(Cl)C3C4CC(C5OC45)C3C1(Cl)C2(Cl)Cl (configuration not stated) [Dieldrin] |  | -1.67 ± 0.84 |  | -1.987 ± 0.015 | -2.14 ± 0.65 | -0.0152 ± 1.5 | -0.473 ± 0.01 | 2.21 ± 0.079 | -0.556 ± 0.44 | -1.33 ± 0.11 |  |  |  |  |  |  |  | 
O=C(O)c1nc(Cl)ccc1Cl [Clopyralid] |  | -1.08 ± 0.48 |  | -1.03 ± 0.57 | -0.337 ± 0.046 | 0.0712 ± 0.39 | 0.653 ± 1.2 | 2.21 ± 0.38 | -0.598 ± 0.35 | -0.606 ± 0.19 |  |  |  |  |  |  |  | 
CCCCCCCCC(=O)O [Nonanoic acid] |  | -1.24 ± 0.71 |  | -1.56 ± 0.047 | -2.05 ± 0.21 | -1.39 ± 0.62 | -1.11 ± 0.22 | 3.09 ± 0.27 | -1.22 ± 1.1 | -0.597 ± 0.11 |  |  |  |  |  |  |  | 
Cc1ccc(Cl)cc1 [4-Chlorotoluene] | -0.192 ± 0.14 | -1.27 ± 2.3 | -1.26 ± 0.55 | -2.78 ± 0.39 | -2.43 ± 0.42 | -1.55 ± 1.5 | -1.15 ± 0.57 | 1.18 ± 0.3 |  |  |  |  |  |  |  |  |  | 
c1ccc(C[n+]2cccc3ccccc32)cc1 [1-Benzylquinolinium chloride] |  |  |  |  |  |  |  |  |  |  | -1.88 ± 0.03 | -1.6 ± 0.26 | -1.47 ± 1.5 | -1.94 ± 0.25 | -1.92 ± 0.61 | -0.779 ± 0.81 | 0.264 ± 0.71 | -1.31 ± 1.1
COc1ccc(C(=O)Nc2nc3ccccc3c(NCc3ccccc3)c2C#N)cc1 |  | -0.452 ± 0.066 |  | 0.715 ± 0.075 | 2.34 ± 0.3 | 2.97 ± 0.97 | 4.87 ± 0.81 | 8.05 ± 0.67 | -1.06 ± 0.44 | -0.037 ± 0.4 |  |  |  |  |  |  |  | 
Nc1ccc(Oc2ccc(N)cc2)cc1 [4,4'-Oxydianiline] | -1.51 ± 0.78 | -3.05 ± 0.94 | -1.18 ± 1.3 | -2.52 ± 0.66 | -1.772 ± 0.0034 | -0.999 ± 2.1 | 17 ± 3.5 | 62.8 ± 3.5 |  |  |  |  |  |  |  |  |  | 
Nc1nc(Cl)nc2c1ncn2C1CC(O)C(CO)O1 (configuration not stated) [Cladribine] |  | 0.387 ± 1.1 |  | 1.39 ± 0.35 | 3.14 ± 0.5 | 7.59 ± 0.6 | 10.9 ± 2 | 13.4 ± 1 | 1.26 ± 0.91 | 1.42 ± 0.94 |  |  |  |  |  |  |  | 
CCCCC(CC)CN1C(=O)C2C3C=CC(C3)C2C1=O (configuration not stated) [Octylbicycloheptenedicarboximide] |  | -0.366 ± 0.72 |  | -1.18 ± 0.3 | -0.584 ± 0.76 | -0.999 ± 0.41 | -1.23 ± 0.39 | 8.34 ± 1 | 0.282 ± 1.1 | -0.0268 ± 1.1 |  |  |  |  |  |  |  | 
O=P(O)(O)CCCl [Ethephon] |  | -1.57 ± 0.61 |  | -1.94 ± 0.34 | -2.12 ± 0.63 | -1.39 ± 0.53 | -0.276 ± 0.008 | 0.34 ± 0.033 | -2.07 ± 0.56 | -2.29 ± 0.67 |  |  |  |  |  |  |  | 
CCOP(=O)(SC(C)CC)N1CCSC1=O (configuration not stated) [Fosthiazate] |  | -0.335 ± 0.79 |  | -0.0276 ± 1 | -0.262 ± 0.11 | -0.389 ± 0.35 | -0.432 ± 0.8 | 0.843 ± 0.36 | -0.419 ± 0.44 | -0.582 ± 0.46 |  |  |  |  |  |  |  | 
